Test results: article PMC6271825, “Synthesis and Cytotoxic Activity Evaluation of Novel Arylpiperazine Derivatives on Human Prostate Cancer Cell Lines” (Molecules, 2014)

Key:
Type in all cases: cell-based
[1] = tested on: DU145 cells; assay: CCK-8 in vitro cytotoxicity assay, DU145; settings: DU-145; human prostate cancer cell line DU145, CCK-8, 24 h exposure, mean ± SD of three experiments
Experimental: (§1) The synthesized target compounds 5 to 29 were evaluated for their in vitro cytotoxic activities against the three human prostate cancer cell lines (PC-3, LNCaP, and DU145), and compared with their effects on human prostate epithelial cell line RWPE-1 by CCK-8 assay.
(§2) PC-3 and RWPE-1 cells were cultured in Dulbecco’s modification Eagle’s medium (DMEM, Invitrogen, Carlsbad, CA, USA) supplemented with 10% fetal bovine serum (FBS, Hyclone, Logan, UT, USA), 100 U/mL penicillin and 0.1 mg/mL streptomycin (Invitrogen). DU145 cells were cultured in RPMI1640 media supplemented with 10% fetal bovine serum (FBS, Hyclone), 100 U/mL penicillin and 0.1 mg/mL streptomycin (Invitrogen). LNCaP cells were cultured in F12 media supplemented with 10% fetal bovine serum (FBS, Hyclone), 100 U/mL penicillin and 0.1 mg/mL streptomycin (Invitrogen). The cells were incubated at 37 °C in a humidified atmosphere with 5% CO2.
(§3) Cell proliferation was measured with the Cell Counting Kit-8 (CCK-8) assay kit (Dojindo Corp., Kumamoto, Japan). Cells were harvested during logarithmic growth phase and seeded in 96-well plates at a density of 1 × 10^5 cells/mL, and cultured at 37 °C in a humidified incubator (5% CO2) for 24 h, followed by exposure to various concentrations of compounds tested for 24 h. Subsequently 10 μL of CCK-8 (Dojindo) was added to each well, the cells were then incubated for an additional 1 h at 37 °C to convert WST-8 into formazan. Cell growth inhibition was determined by measuring the absorbance (Abs) at λ = 450 nm using amicroplate reader. Three independent experiments were performed. Cell growth inhibition was calculated according to the following equation: Growth inhibition = (1 − OD of treated cells/OD of control cells) × 100%
(§4) The half maximal inhibitory concentrations (IC50) were obtained from linear regression analysis of the concentration-response curves plotted for each tested compound.

[2] = tested on: PC-3 cells; assay: CCK-8 in vitro cytotoxicity assay, PC-3; settings: human prostate cancer cell line PC-3, CCK-8, 24 h exposure, mean ± SD of three experiments
Experimental: as §1, §2, §3, §4

[3] = tested on: RWPE-1 cells; assay: CCK-8 in vitro cytotoxicity assay, RWPE-1 normal prostate epithelial cells; settings: human prostate epithelial cell line RWPE-1 (normal), CCK-8, 24 h exposure, mean ± SD of three experiments
Experimental: as §1, §2, §3, §4

[4] = tested on: LNCaP cells; assay: CCK-8 in vitro cytotoxicity assay, LNCaP; settings: human prostate cancer cell line LNCaP, CCK-8, 24 h exposure, mean ± SD of three experiments
Experimental: as §1, §2, §3, §4

Row | Structure (SMILES) | IC50 [1] [µM] | IC50 [2] [µM] | IC50 [3] [µM] | IC50 ([4]; Homo sapiens, LNCaP, 24 h) [µM] | IC50 [4] [µM]
1 | Clc1cccc(N2CCN(CCc3ccc(COc4ccc5c(c4)OCO5)cc3)CC2)c1Cl [Compound 22, 1-(2-(4-((Benzo[d][1,3]dioxol-5-yloxy)methyl)phenyl)ethyl)-4-(2,3-dichlorophenyl)piperazine] | > 50 | > 50 | > 50 | 39.4 ± 0.54 | –
2 | COc1cccc(N2CCN(CCc3ccc(COc4ccc5c(c4)OCO5)cc3)CC2)c1 [Compound 14, 1-(2-(4-((Benzo[d][1,3]dioxol-5-yloxy)methyl)phenyl)ethyl)-4-(3-methoxyphenyl)piperazine] | > 50 | > 50 | 39 ± 0.77 | > 50 | –
3 | Fc1ccc(N2CCN(CCc3ccc(COc4ccc5c(c4)OCO5)cc3)CC2)c(F)c1 [Compound 17, 1-(2-(4-((Benzo[d][1,3]dioxol-5-yloxy)methyl)phenyl)ethyl)-4-(2,4-difluorophenyl)piperazine] | 26.8 ± 0.92 | > 50 | 23.9 ± 0.75 | 26.8 ± 1 | –
4 | Cc1ccccc1N1CCN(CCc2ccc(COc3ccc4c(c3)OCO4)cc2)CC1 [Compound 9, 1-(2-(4-((Benzo[d][1,3]dioxol-5-yloxy)methyl)phenyl)ethyl)-4-o-tolylpiperazine] | > 50 | > 50 | 31 ± 1.57 | < 5 | 3.47 ± 0.36
5 | CC(=O)c1ccc(N2CCN(CCc3ccc(COc4ccc5c(c4)OCO5)cc3)CC2)cc1 [Compound 27, 1-(4-(4-(2-(4-((Benzo[d][1,3]dioxol-5-yloxy)methyl)phenyl)ethyl)piperazin-1-yl)phenyl)ethanone] | > 50 | 24.9 ± 0.68 | 26.8 ± 3.01 | > 50 | –
6 | c1ccc(N2CCN(CCc3ccc(COc4ccc5c(c4)OCO5)cc3)CC2)nc1 [Compound 7, 1-(2-(4-((Benzo[d][1,3]dioxol-5-yloxy)methyl)phenyl)ethyl)-4-(pyridin-2-yl)piperazine] | > 50 | > 50 | 41.1 ± 0.54 | 31.2 ± 0.63 | –
7 | Brc1ccc(N2CCN(CCc3ccc(COc4ccc5c(c4)OCO5)cc3)CC2)cc1 [Compound 24, 1-(2-(4-((Benzo[d][1,3]dioxol-5-yloxy)methyl)phenyl)ethyl)-4-(4-bromophenyl)piperazine] | > 50 | > 50 | > 50 | 19.9 ± 1.01 | –
8 | Clc1ccccc1N1CCN(CCc2ccc(COc3ccc4c(c3)OCO4)cc2)CC1 [Compound 19, 1-(2-(4-((Benzo[d][1,3]dioxol-5-yloxy)methyl)phenyl)ethyl)-4-(2-chlorophenyl)piperazine] | > 50 | > 50 | 29.9 ± 0.8 | 26.6 ± 0.4 | –
9 | Clc1cccc(N2CCN(CCc3ccc(COc4ccc5c(c4)OCO5)cc3)CC2)c1 [Compound 21, 1-(2-(4-((Benzo[d][1,3]dioxol-5-yloxy)methyl)phenyl)ethyl)-4-(3-chlorophenyl)piperazine] | > 50 | > 50 | > 50 | 25.3 ± 1.55 | –
10 | FC(F)(F)c1ccc(N2CCN(CCc3ccc(COc4ccc5c(c4)OCO5)cc3)CC2)cc1 [Compound 26, 1-(2-(4-((Benzo[d][1,3]dioxol-5-yloxy)methyl)phenyl)ethyl)-4-(4-(trifluoromethyl)phenyl)piperazine] | > 50 | > 50 | > 50 | 26.8 ± 1.51 | –
11 | c1ccc(CN2CCN(CCc3ccc(COc4ccc5c(c4)OCO5)cc3)CC2)cc1 [Compound 6, 1-(2-(4-((Benzo[d][1,3]dioxol-5-yloxy)methyl)phenyl)ethyl)-4-benzylpiperazine] | 28.9 ± 0.98 | > 50 | 38.8 ± 0.77 | 27.7 ± 4.17 | –
12 | Cc1ccc(N2CCN(CCc3ccc(COc4ccc5c(c4)OCO5)cc3)CC2)cc1 [Compound 10, 1-(2-(4-((Benzo[d][1,3]dioxol-5-yloxy)methyl)phenyl)ethyl)-4-p-tolylpiperazine] | 47.8 ± 2.02 | > 50 | > 50 | 31.9 ± 0.89 | –
13 | Fc1ccc(N2CCN(CCc3ccc(COc4ccc5c(c4)OCO5)cc3)CC2)cc1 [Compound 16, 1-(2-(4-((Benzo[d][1,3]dioxol-5-yloxy)methyl)phenyl)ethyl)-4-(4-fluorophenyl)piperazine] | > 50 | > 50 | > 50 | 32.5 ± 1.04 | –
14 | FC(F)(F)c1ccccc1N1CCN(CCc2ccc(COc3ccc4c(c3)OCO4)cc2)CC1 [Compound 25, 1-(2-(4-((Benzo[d][1,3]dioxol-5-yloxy)methyl)phenyl)ethyl)-4-(2-(trifluoromethyl)phenyl)piperazine] | > 50 | > 50 | 18.9 ± 3.68 | 32.96 ± 0.21 | –
15 | Clc1ccc(N2CCN(CCc3ccc(COc4ccc5c(c4)OCO5)cc3)CC2)cc1 [Compound 20, 1-(2-(4-((Benzo[d][1,3]dioxol-5-yloxy)methyl)phenyl)ethyl)-4-(4-chlorophenyl)piperazine] | > 50 | > 50 | > 50 | > 50 | –
16 | COc1ccc(N2CCN(CCc3ccc(COc4ccc5c(c4)OCO5)cc3)CC2)cc1 [Compound 13, 1-(2-(4-((Benzo[d][1,3]dioxol-5-yloxy)methyl)phenyl)ethyl)-4-(4-methoxyphenyl)piperazine] | > 50 | > 50 | > 50 | 28.3 ± 0.49 | –
17 | c1ccc(C2CCN(CCc3ccc(COc4ccc5c(c4)OCO5)cc3)CC2)cc1 [Compound 28, 1-(2-(4-((Benzo[d][1,3]dioxol-5-yloxy)methyl)phenyl)ethyl)-4-phenylpiperidine] | 24.7 ± 2.22 | > 50 | 28.5 ± 2.18 | 18.2 ± 1.88 | –
18 | Fc1ccccc1N1CCN(CCc2ccc(COc3ccc4c(c3)OCO4)cc2)CC1 [Compound 15, 1-(2-(4-((Benzo[d][1,3]dioxol-5-yloxy)methyl)phenyl)ethyl)-4-(2-fluorophenyl)piperazine] | > 50 | > 50 | 41 ± 0.47 | – | –
19 | N#Cc1ccc(N2CCN(CCc3ccc(COc4ccc5c(c4)OCO5)cc3)CC2)c(F)c1 [Compound 18, 4-(4-(2-(4-((Benzo[d][1,3]dioxol-5-yloxy)methyl)phenyl)ethyl)piperazin-1-yl)-3-fluorobenzonitrile] | > 50 | 26.9 ± 1 | > 50 | 13.1 ± 0.51 | –
20 | COc1ccccc1N1CCN(CCc2ccc(COc3ccc4c(c3)OCO4)cc2)CC1 [Compound 12, 1-(2-(4-((Benzo[d][1,3]dioxol-5-yloxy)methyl)phenyl)ethyl)-4-(2-methoxyphenyl)piperazine] | > 50 | > 50 | > 50 | 30.7 ± 0.83 | –
21 | c1cnc(N2CCN(CCc3ccc(COc4ccc5c(c4)OCO5)cc3)CC2)nc1 [Compound 8, 2-(4-(2-(4-((Benzo[d][1,3]dioxol-5-yloxy)methyl)phenyl)ethyl)piperazin-1-yl)pyrimidine] | 8.25 ± 0.16 | > 50 | 31.7 ± 3.14 | 26.6 ± 0.86 | –
22 | COc1ccc(Cl)cc1N1CCN(CCc2ccc(COc3ccc4c(c3)OCO4)cc2)CC1 [Compound 23, 1-(2-(4-((Benzo[d][1,3]dioxol-5-yloxy)methyl)phenyl)ethyl)-4-(5-chloro-2-methoxyphenyl)piperazine] | > 50 | > 50 | 35.9 ± 1.25 | 33.2 ± 2.69 | –
23 | OC1(c2ccccc2)CCN(CCc2ccc(COc3ccc4c(c3)OCO4)cc2)CC1 [Compound 29, 1-(2-(4-((Benzo[d][1,3]dioxol-5-yloxy)methyl)phenyl)ethyl)-4-phenylpiperidin-4-ol] | 38.2 ± 2.45 | > 50 | 19.73 ± 0.01 | 43 ± 7.58 | –
24 | c1ccc(N2CCN(CCc3ccc(COc4ccc5c(c4)OCO5)cc3)CC2)cc1 [Compound 5, 1-(2-(4-((Benzo[d][1,3]dioxol-5-yloxy)methyl)phenyl)ethyl)-4-phenylpiperazine] | > 50 | > 50 | > 50 | 27.9 ± 1.72 | –
25 | COc1ccccc1N1CCN(CC(O)COc2cccc3ccccc23)CC1 (centres unmarked) [naftopidil, reference compound] | 34.58 ± 0.31 | 42.1 ± 0.79 | > 50 | 22.4 ± 0.61 | –
26 | Cc1cccc(N2CCN(CCc3ccc(COc4ccc5c(c4)OCO5)cc3)CC2)c1 [Compound 11, 1-(2-(4-((Benzo[d][1,3]dioxol-5-yloxy)methyl)phenyl)ethyl)-4-m-tolylpiperazine] | > 50 | > 50 | > 50 | > 50 | –
